Measurements from patent US20250361209A1, “CRYSTAL FORMS OF N-(3-FLUOROPHENYL)-6-(6,7-DIMETHOXYQUINOLIN-4-OXY)-3,4-DIHYDROQUINOLINE-1(2H)-CARBOXAMIDE METHANESULFONATE AND PREPARATION METHOD THEREOF” (Shanghai Yi Feng Biotechnology Co., Ltd., priority 2023, published 2025).
“Also recorded” adds a separate entry of the source.

Assays:
Assay type in all cases: physicochemical
[1] = Solid state stability of the crystalline form C of methanesulfonate (HPLC purity, XRPD); conditions: for change in HPLC purity: closed condition 60° C. 24 hours, open condition 25° C./60% RH 1 week or 4 weeks, methanesulfonate
Procedure: The purity decreased from 99.22 area % to 98.80 area % after the crystalline form C was placed under an open condition in an environment of 40° C./75% RH for 4 weeks, with a 0.38% increase in the impurity at RRT of 0.81.

[2] = Hygroscopicity, DVS test
Procedure: The hygroscopicity of the anhydrate crystalline form C of methanesulfonate was evaluated by a DVS test at 0% RH-95% RH at 25° C.

[3] = Test of influencing factors of crystalline forms A, B and C (total impurity)
Excerpt: Example 3 Test of Influencing Factors of Crystalline Forms A, B and C

[4] = 60° C./closed condition/24 hours
[5] = Start* (RH tests; stored at −20° C.)
[6] = open condition 40° C./75% RH, 4 weeks

COc1cc2nccc(Oc3ccc4c(c3)CCCN4C(=O)Nc3cccc(F)c3)c2cc1OC [Crystalline form C, N-(3-fluorophenyl)-6-(6,7-dimethoxyquinolin-4-oxy)-3,4-dihydroquinoline-1(2H)-carboxamide methanesulfonate]
solid state stability compared with other crystalline forms [1]: better than that of the crystalline form A and the crystalline form B | Purity, area %, peak 1 RRT 0.42 ([1]; 25° C./60% RH open, 1 week*): 0.02 area % | Purity, area %, peak 2 RRT 0.60-0.61 ([1]; 25° C./60% RH open, 1 week*): 0.04 area % | Purity, area %, peak 3 RRT 0.81 ([1]; 25° C./60% RH open, 1 week*): 0.55 area % | Purity, area %, peak 4 RRT 0.93 ([1]; 25° C./60% RH open, 1 week*): 0.05 area % | Purity, area %, peak 5 RRT 1.00 (main peak) ([1]; 25° C./60% RH open, 1 week*): 99.15 area % | Purity, area %, peak 6 RRT 1.10 ([1]; 25° C./60% RH open, 1 week*): 0.14 area % | Purity, area %, peak 7 RRT 1.27 ([1]; 25° C./60% RH open, 1 week*): 0.06 area % | Purity, area %, peak 1 RRT 0.42 ([1]; 25° C./60% RH open, 4 weeks): 0.02 area % | Purity, area %, peak 2 RRT 0.60-0.61 ([1]; 25° C./60% RH open, 4 weeks): 0.05 area % | Purity, area %, peak 3 RRT 0.81 ([1]; 25° C./60% RH open, 4 weeks): 0.54 area % | Purity, area %, peak 4 RRT 0.93 ([1]; 25° C./60% RH open, 4 weeks): 0.05 area % | Purity, area %, peak 5 RRT 1.00 (main peak) ([1]; 25° C./60% RH open, 4 weeks): 99.14 area % | Purity, area %, peak 6 RRT 1.10 ([1]; 25° C./60% RH open, 4 weeks): 0.14 area % | Purity, area %, peak 7 RRT 1.27 ([1]; 25° C./60% RH open, 4 weeks): 0.06 area % | Purity, area %, peak 1 RRT 0.42 ([1]; 40° C./75% RH open, 1 week*): 0.03 area % | Purity, area %, peak 2 RRT 0.60-0.61 ([1]; 40° C./75% RH open, 1 week*): 0.04 area % | Purity, area %, peak 3 RRT 0.81 ([1]; 40° C./75% RH open, 1 week*): 0.69 area % | Purity, area %, peak 4 RRT 0.93 ([1]; 40° C./75% RH open, 1 week*): 0.04 area % | Purity, area %, peak 5 RRT 1.00 (main peak) ([1]; 40° C./75% RH open, 1 week*): 99.02 area % | Purity, area %, peak 6 RRT 1.10 ([1]; 40° C./75% RH open, 1 week*): 0.13 area % | Purity, area %, peak 7 RRT 1.27 ([1]; 40° C./75% RH open, 1 week*): 0.06 area % | Purity, area %, peak 1 RRT 0.42 ([1]; 40° C./75% RH open, 4 weeks): 0.03 area % | Purity, area %, peak 2 RRT 0.60-0.61 ([1]; 40° C./75% RH open, 4 weeks): 0.08 area % | Purity, area %, peak 3 RRT 0.81 ([1]; 40° C./75% RH open, 4 weeks): 0.86 area % | Purity, area %, peak 4 RRT 0.93 ([1]; 40° C./75% RH open, 4 weeks): 0.05 area % | Purity, area %, peak 5 RRT 1.00 (main peak) ([1]; 40° C./75% RH open, 4 weeks): 98.80 area % | Purity, area %, peak 6 RRT 1.10 ([1]; 40° C./75% RH open, 4 weeks): 0.13 area % | Purity, area %, peak 7 RRT 1.27 ([1]; 40° C./75% RH open, 4 weeks): 0.05 area % | Purity, area %, peak 1 RRT 0.42 [1, 4]: 0.03 area % | Purity, area %, peak 2 RRT 0.60-0.61 [1, 4]: 0.05 area % | Purity, area %, peak 3 RRT 0.81 [1, 4]: 0.55 area % | Purity, area %, peak 4 RRT 0.93 [1, 4]: 0.05 area % | Purity, area %, peak 5 RRT 1.00 (main peak) [1, 4]: 99.12 area % | Purity, area %, peak 6 RRT 1.10 [1, 4]: 0.15 area % | Purity, area %, peak 7 RRT 1.27 [1, 4]: 0.05 area % | Purity, area %, peak 1 RRT 0.42 ([1]; Start (60° C. closed test)): 0.03 area % | Purity, area %, peak 2 RRT 0.60-0.61 ([1]; Start (60° C. closed test)): 0.05 area % | Purity, area %, peak 3 RRT 0.81 ([1]; Start (60° C. closed test)): 0.54 area % | Purity, area %, peak 4 RRT 0.93 ([1]; Start (60° C. closed test)): 0.05 area % | Purity, area %, peak 5 RRT 1.00 (main peak) ([1]; Start (60° C. closed test)): 99.13 area % | Purity, area %, peak 6 RRT 1.10 ([1]; Start (60° C. closed test)): 0.15 area % | Purity, area %, peak 7 RRT 1.27 ([1]; Start (60° C. closed test)): 0.06 area % | Purity, area %, peak 1 RRT 0.42 [1, 5]: 0.02 area % | Purity, area %, peak 2 RRT 0.60-0.61 [1, 5]: 0.03 area % | Purity, area %, peak 3 RRT 0.81 [1, 5]: 0.48 area % | Purity, area %, peak 4 RRT 0.93 [1, 5]: 0.05 area % | Purity, area %, peak 5 RRT 1.00 (main peak) [1, 5]: 99.22 area % | Purity, area %, peak 6 RRT 1.10 [1, 5]: 0.14 area % | Purity, area %, peak 7 RRT 1.27 [1, 5]: 0.06 area % | crystalline form after the stability test (XRPD) ([1]; after stability test): no change in crystalline form | change in HPLC purity ([1]; listed as crystalline form C of methanesulfonate): no significant decrease | change in HPLC purity [1]: No significant change | decrease in purity [1, 6]: 0.42 area % | increase in the impurity at RRT of 0.81 [1, 6]: 0.38% | hygroscopicity compared with other crystalline forms [2]: better than that of the crystalline form A and the crystalline form B | hygroscopicity classification ([2]; DVS 0% RH-95% RH at 25° C., classification per Chinese Pharmacopoeia 2015): slight hygroscopicity | hygroscopic weight gain ([2]; DVS, 25° C./80% RH): about 0.46% | crystalline form after the DVS test (XRPD) ([2]; after DVS test, listed as crystalline form C of methanesulfonate, methanesulfonate): no change in crystalline form; also recorded: remained unchanged | Total impurity % ([3]; High humidity (RH92.5%), 0 day): 0.66% | Total impurity % ([3]; High humidity (RH92.5%), 10 days): 0.75% | Total impurity % ([3]; High humidity (RH92.5%), 30 days): 0.73% | Total impurity % ([3]; High temperature (60° C.), 0 day, methanesulfonate): 0.66% | Total impurity % ([3]; High temperature (60° C.), 10 days, methanesulfonate): 0.81% | Total impurity % ([3]; High temperature (60° C.), 30 days): 0.85% | Total impurity % ([3]; Illumination (5000 + 500 lux), 0 day, methanesulfonate): 0.66% | Total impurity % ([3]; Illumination (5000 + 500 lux), 10 days, methanesulfonate): 0.83% | Total impurity % ([3]; Illumination (5000 + 500 lux), 30 days, methanesulfonate): 0.89%
